These results are taken from article PMC10145437, “Pd(II) and Pt(II) Trinuclear Chelates with Spermidine: Selective Anticancer Activity towards TNBC-Sensitive and -Resistant to Cisplatin” (Pharmaceutics, 2023).

By IC50 is commonly meant the midpoint of a concentration-inhibition curve.

Read-outs that look alike come from different tables or passages of the source.

The test system of assay [1] is leukemic P388 cells. More on the design: method as in doi:10.1016/j.ccr.2016.02.001. The settings on record: cited from earlier work.
Assay [2] concerns sarcoma. Details: method as in earlier work. The following applies: cited from earlier work.
In assay [3] the test system is MDA-MB-231 cells. Put plainly: Cell proliferation evaluation (label-free image cell counting). The assay is classed as cell-based, human. The following applies: for concentration of maximum suppression of cell proliferation: MDA-MB-231, 48 h. The procedure: (§1) The human TNBC MDA-MB-231 cell line (ATCC HTB-26) and the non-cancerous breast cell line MCF-12A (ATCC CRL-10782) were purchased from ATCC (Manassas, VA, USA). DMEM-HG cell growth medium supplemented with 10% (v/v) FBS was used to culture breast cancer cells. To establish a cisplatin-resistant cell strain, MDA-MB-231 cells were continuously treated with increasing concentrations of cisplatin (up to 2 µM) during a period of 6 months. When a consistent cell growth rate in the presence of cisplatin was achieved, these cells were named MDA-MB-231/R and stocked to assure the consistency of the phenotype for future use and experiments. All posterior experiments were performed within 10 passages to maintain the resistance while routinely growing the MDA-MB-231/R cell line in a cell culture medium without the addition of cisplatin. MCF-12A cells were cultured in DMEM/F12 medium supplemented with 100 ng/mL cholera toxin, 0.01 mg/mL bovine insulin, 20 ng/mL hEGF, 500 ng/mL hydrocortisone and 5% (v/v) horse serum. Cells were grown in monolayers in a sterile environment at 37 °C with a 5% CO2 humidified atmosphere. Under these conditions, the population doubling time was 25.5 ± 0.9 h and 30.6 ± 1.1 h for MDA-MB-231 and MDA-MB-231/R cells, respectively, and 20.6 ± 3.1 h for MCF-12A cells. The cell cultures were routinely screened for mycoplasma contamination, yielding negative results.
(§2) Cells were seeded in 96-well microplates at the cell density 1.5 × 10^4 cells/cm^2 (final volume 200 µL/well) and left 24 h to attach. Afterwards, the growth medium was replaced with the growth medium containing cisplatin (0.1–200 µM), Pd3Spd2 (0.3–200 µM), Pt3Spd2 (0.3–100 µM) and Pd2Spm (0.3–200 µM).
(§3) Cell proliferation was monitored with the direct image acquisition of cells on microplates at 0, 24, 48 and 72 h post-addition of the tested compounds using a LionheartFX automated microscope (BioTek, Winooski, VT, USA). Label-free kinetic 4× images were acquired and processed using Gen 5 Image Analysis software (BioTek, Winooski, VT, USA). Individual cells per image were identified and counted, and normalized cell growth (%) was calculated using the following formula: Ct=Number of Treated Cellst−Number of Treated Cells0/Number of Untreated Cellst−Number of Untreated Cells0×100 where C(t) is the percent of net cell growth over time, Number of Treated Cells(t) is the count of cells treated with drug at each time point, Number of Treated Cells(0) is the count cells treated with drug at time 0 h, Number of Untreated Cells(t) is the count of untreated (control) cells at each time point and Number of Untreated Cells(0) is the count of untreated (control) cells at time 0 h.
(§4) Data are expressed as the mean ± standard error of the mean (SEM). GraphPad Prism 7 Software (San Diego, CA, USA) was used, and the statistical analysis was performed using the two-tailed Student’s t-test. The half-maximal inhibitory concentration values (IC50) were calculated by interpolation from the nonlinear regression curves obtained from cell proliferation/cytotoxicity data using “log(inhibitor) versus the normalized response–variable slope equation”. A p-value lower than 0.05 was considered statistically significant.

Assay [4] deals with MDA-MB-231/R cells (cisplatin-resistant). The assay is described as above. The settings on record: for Resistance Index: IC50 MDA-MB-231/R divided by IC50 MDA-MB-231, cell proliferation assay; for concentration of maximum suppression of cell proliferation: MDA-MB-231/R; for IC50: suppression of cell proliferation, n = 4. In kind it is cell-based, human. On the procedure: as §1, §2, §3, §4

The subject of assay [5] is MCF-12A cells (non-cancerous breast cells). Described as above. In kind it is cell-based, human. The following applies: for Selectivity Index for MDA-MB-231/R: IC50 MCF-12A divided by IC50 MDA-MB-231/R; for IC50: suppression of cell proliferation, n = 4, read-out: IC50 against MCF-12A cells. The procedure:
as §1, §2, §3, §4

In assay [6] the test system is MDA-MB-231 cells. Put plainly: MTT assay (cell viability). The assay is classed as cell-based, human. The following applies: n = 4. On the procedure: (§5) The cells were harvested upon the addition of trypsin/EDTA solution, seeded in 96-well plates (1.5 × 10^4 cells/cm^2) and incubated at 37 °C. After allowing the cells to adhere for 24 h, the growth medium was replaced with the growth medium containing Pd3Spd2 (1–200 µM) or Pt3Spd2 (1–200 µM).
(§6) After each incubation period (24, 48 and 72 h), the cell viability was evaluated by the MTT [33] method. Briefly, a MTT solution (0.5 mg/mL in PBS) was added to each well after carefully removing the medium and allowed to incubate for 3 h at 37 °C; after which, the MTT was aspirated and, in order to dissolve the formazan crystals, 100 µL of DMSO were added. The optical density was measured at 570 nm.
as §4

The test system of assay [7] is MDA-MB-231/R cells (cisplatin-resistant). The assay is described as follows: MTT assay (cell viability). The following applies: for IC50: cell viability, MTT assay, n = 4. In kind it is cell-based, human. The procedure:
as §5, §6, §4
Background: Tetrazolium dyes change colour on reduction, which living cells bring about.

[8] abbreviates: suppression of cell proliferation, 24 h incubation, n = 4, read-out: MDA-MB-231 IC50.
Where [9] appears, read: suppression of cell proliferation, 48 h incubation, n = 4, read-out: MDA-MB-231 IC50.
Where [10] appears, read: suppression of cell proliferation, 72 h incubation, n = 4, read-out: MDA-MB-231 IC50.
Where [11] appears, read: IC50 MCF-12A divided by IC50 MDA-MB-231, 48 h.

On to `O=[N+]([O-])[O-].O=[N+]([O-])[O-].[Pd+2].c1ccc(-c2ccccn2)nc1` [Pd(bpy)(ONO2)2], for which the “activity towards leukemic P388 cells” value in assay [1] is “inactive”. Moreover, the “antitumor activity against sarcoma” value in assay [2] was “effective antitumor agent”.
Take `NCCCCNCCCN.NCCCCNCCCN.[Cl][Pd][Cl].[Cl][Pd][Cl].[Cl][Pd][Cl]` [Pd3Spd2]: the “concentrations that suppressed cell proliferation” value in assay [3] (MDA-MB-231, 24-72 h, concentration-dependent) was “above 1 μM”. In addition, the “concentration of maximum suppression of cell proliferation” value (“concentration … of cell proliferation” for short) in assay [3] and in assay [4] (48 h) was 30 µM throughout. Also, the IC50 in assay [3] (setting [8]) was found to be 8.35 µM; in assay [3] (setting [9]), 8.44 µM; in assay [3] (setting [10]), 7.92 µM; in assay [4] (24 h incubation) it was 13.3 µM; in assay [4] (48 h incubation) it was 10.6 µM; in assay [4] (72 h incubation), 10.8 µM. Besides, the IC50 worked out at 66.3 µM in assay [5] (24 h incubation); 53 µM in assay [5] (48 h incubation); 49.7 µM in assay [5] (72 h incubation); 8.99 µM in assay [6] (24 h incubation); 4.65 µM in assay [6] (48 h incubation); 6.12 µM in assay [6] (72 h incubation). Besides, the results for the IC50 in assay [7] (24 h incubation), in assay [7] (48 h incubation) and in assay [7] (72 h incubation) were 9.24 µM, 10.6 µM and 11.4 µM, respectively. Also, the “Resistance Index” value in assay [4] (24 h) worked out at 1.6; in assay [4] (48 h), 1.3; in assay [4] (72 h), 1.4. Further, the “Selectivity Index for MDA-MB-231” value was determined as 7.94 in assay [5] (IC50 MCF-12A divided by IC50 MDA-MB-231, 24 h); 6.28 in assay [5] (setting [11]); 6.28 in assay [5] (IC50 MCF-12A divided by IC50 MDA-MB-231, 72 h). Besides, the “Selectivity Index for MDA-MB-231/R” value in assay [5] (48 h) is 4.99; in assay [5] (72 h) it was 4.59. Further, the “selectivity index for MDA-MB-231 cells (sensitive TNBC), over incubation times” value in assay [5] (MCF-12A versus MDA-MB-231, depending on the time of incubation (24-72 h)) is reported as greater than 6.28. Besides, the “selectivity index for MDA-MB-231/R cells (resistant TNBC), over incubation times” value in assay [5] (MCF-12A versus MDA-MB-231/R, depending on the time of incubation (24-72 h)) was greater than 4.59. The “resistance index (abstract summary)” value in assay [7] (MDA-MB-231/R versus MDA-MB-231, over assays and incubation times) is given as “lower than 2.3”.
With `NCCCCNCCCN.NCCCCNCCCN.[Cl][Pt][Cl].[Cl][Pt][Cl].[Cl][Pt][Cl]` [Pt3Spd2], in assay [3] (MDA-MB-231, only with concentrations above 100 μM), the “reduction of cell proliferation” value was “up to 25%”. In addition, the IC50 was greater than 100 µM in assay [3] (cell proliferation, depending on the incubation period (24, 48, 72 h), read-out: IC50 in MDA-MB-231 cells, over all incubation periods); greater than 100 µM in assay [3] (setting [8]); greater than 100 µM in assay [3] (setting [9]); greater than 100 µM in assay [3] (setting [10]); greater than 100 µM in assay [4] (24 h incubation); greater than 100 µM in assay [4] (48 h incubation). Further, the IC50 in assay [4] (72 h incubation) is greater than 100 µM; in assay [6] (24 h incubation), greater than 100 µM; in assay [6] (48 h incubation), greater than 100 µM; in assay [6] (72 h incubation) it was greater than 100 µM; in assay [7] (24 h incubation), greater than 100 µM; in assay [7] (48 h incubation), 67.9 µM. Further, the IC50 in assay [7] (72 h incubation) was greater than 100 µM.
For the compound `N.N.[Cl][Pt][Cl]` [cisplatin, cis-dichlorodiammine platinum(II)], the “concentration … of cell proliferation” value was 30 µM in assay [3] and 200 µM in assay [4] (48 h). For the same compound, the IC50 in assay [3] (setting [9]) is 1 µM; in assay [4] (48 h incubation), 32.4 µM; in assay [5] (48 h incubation), 1 µM. Also, the “Selectivity Index for MDA-MB-231” value in assay [5] (setting [11]) is 1.
With `NCCCNCCCCNCCCN.[Cl][Pd][Cl].[Cl][Pd][Cl]` [Pd2Spm, reference compound], the “concentration … of cell proliferation” value in assay [3] and in assay [4] (48 h) was 30 µM each time. Besides, the half-maximal inhibitory concentration (IC50) in assay [3] (setting [9]) was 7.9 µM; in assay [4] (48 h incubation) it was 11.6 µM; in assay [5] (48 h incubation), roughly 90 µM. Further, the “concentrations required to suppress/modify MCF-12A cell proliferation” value in assay [5] (MCF-12A healthy breast cells, 48 h) is given as “above 40 μM”. Moreover, the “suppression of MCF-12A cell proliferation” value in assay [5] (MCF-12A, for 100 μM, 48 h) is listed as “up to 60%”.
